Target: T1, human FSH receptor (Homo sapiens, UniProt P23945)
T1 construct: expressed in transfected cells; host or cells: Chinese Hamster Ovary cells (K-1; ATCC), line rhFSHR-cLUC
T1 sequence (P23945 18-695): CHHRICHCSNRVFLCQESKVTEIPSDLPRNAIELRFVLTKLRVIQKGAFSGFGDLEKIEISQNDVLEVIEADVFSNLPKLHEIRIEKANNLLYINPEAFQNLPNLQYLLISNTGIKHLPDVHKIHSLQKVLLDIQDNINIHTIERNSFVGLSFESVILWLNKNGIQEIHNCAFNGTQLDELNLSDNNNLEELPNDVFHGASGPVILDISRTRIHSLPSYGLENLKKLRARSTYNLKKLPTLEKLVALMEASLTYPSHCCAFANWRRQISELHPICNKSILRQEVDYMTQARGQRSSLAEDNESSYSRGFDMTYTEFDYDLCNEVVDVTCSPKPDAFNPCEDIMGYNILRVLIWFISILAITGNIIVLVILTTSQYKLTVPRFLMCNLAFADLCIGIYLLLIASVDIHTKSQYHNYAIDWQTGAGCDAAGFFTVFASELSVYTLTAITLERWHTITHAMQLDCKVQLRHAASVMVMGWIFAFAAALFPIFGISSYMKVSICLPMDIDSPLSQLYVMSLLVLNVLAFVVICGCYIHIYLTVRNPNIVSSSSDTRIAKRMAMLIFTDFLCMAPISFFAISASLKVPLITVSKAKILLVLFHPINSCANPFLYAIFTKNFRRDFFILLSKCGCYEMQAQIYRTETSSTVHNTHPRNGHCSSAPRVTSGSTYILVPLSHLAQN
Assay: hFSHR CHO cAMP assay (rhFSHR-cLUC cells, FSH-stimulated cAMP, radioimmunoassay)
Type: cell-based
Settings: inhibition of cAMP produced by EC70 dose of FSH (4.85 nM); maximum concentration 50 μM
Source text: Minimum Essential Medium-Alpha (MEM-alpha), fetal bovine serum (FBS), penicillin, streptomycin, geneticin, trypsin-EDTA, Hanks' Balanced Salt Solution (no Calcium chloride, Magnesium chloride, Magnesium sulfate, or phenol red; Ca-Mg free HBSS) were purchased from Gibco BRL (Gaithersburg, Md.). The cells used for the FSH bioassay (rhFSHR-cLUC) were Chinese Hamster Ovary cells (K-1; ATCC) stably transformed with human FSH receptor (pSVK-FSHr) and a cAMP luciferase reporter gene (responsive CGα-180LUC). Follicle Stimulating Hormone (Metrodin; Fertinex) was purchased from Serono, Ltd. (Norwell, Mass.).
The rhFSHR-cLUC cell cultures were maintained in MEM-Alpha supplemented with 10% heat-inactivated FBS (HIFBS), 100 U/ml penicillin, 100 μg/mL streptomycin, and included 0.1 g/L geneticin for stable cell selection.
Forty-eight hours after the cells were plated in sterile 96-well culture plates (Corning, Corning, N.Y.) the spent media was removed and 50 μl assay media (modified growth media with 2% HIFBS) containing 2 mM IBMX (3-isobutyl-1-methyl-xanthine) was added to the cells. Compounds (25 μl) in the appropriate concentration were added followed 5 minutes later by an EC70 dose of FSH (25 μl; 160 ng/ml; 4.85 nM). After 10 minutes @ 22.5° C. (room temperature) the reaction was terminated by addition of 25 μL 0.5 N hydrochloric acid to each well. The amount of cAMP produced was measured by radioimmunoassay in a FlashPlate (DuPont, Boston, Mass.). To each flash plate 60 μL flash plate buffer was added followed by 40 μL acidified cell sample or cAMP standard, followed with the addition of 100 μl ^125l-cAMP trace. The FlashPlates were sealed, incubated overnight @ room temperature, and counted in a Packard TopCount (Packard Instrument Co., Meriden, Conn.). The cAMP radioimmunoassay results were calculated using DPM conversion and log-logit transformation of % binding (Excel program).
Test compounds were solubilized in 30% dimethyl sulfoxide (DMSO) at a concentration of 10 mM before diluting to appropriate concentrations in assay medium. The final DMSO concentration in the treated cells and in the control cells was 0.75%.
For individual experiments, a set of samples were tested including a vehicle control (assay buffer), a reference compound (hFSH) at a range of concentrations designed to elicit a minimal to maximal response, and several concentrations of test compounds together with an EC70 concentration of standard (hFSH challenge). Each compound was performed in duplicates for the primary evaluation and quadruplicates for the dose-ranging experiments. The cAMP radioimmunoassay raw data (pmol) were calculated to provide average pmol cAMP produced/ml and the percent inhibition was calculated as shown below.
% Inh=[1−(Avg.pmoltest compound+standard)/(Avg.pmolstandard)]×100
EC50 values were calculated from an analysis of the concentration-inhibition data using a linear analysis of the data transformed to a log-logit format.

| SMILES | EC50 |
| --- | --- |
| COc1ccccc1CCN(CC(=O)N1CCNCC1)S(=O)(=O)c1ccc(-c2ccccc2C)cc1 [Compound 151] | 9790 nM |
| COc1ccccc1CN(CC(=O)N1CCNCC1)S(=O)(=O)c1ccc(-c2ccccc2C)cc1 [Compound 174] | ≥ 50000 nM |
| C[C@H](CN(CC(=O)NCc1ccc(CN)cc1)S(=O)(=O)c1ccc(-c2cccc(F)c2)cc1)c1ccccc1 [Compound 213] | 70 nM |
| COc1ccccc1CCN(CC(=O)NCc1ccc(CN)cc1)S(=O)(=O)c1ccccc1-c1ccccc1C [Compound 218] | 1200 nM |
| COc1ccccc1CCN(CC(=O)NCc1ccc(CN)cc1)S(=O)(=O)c1ccc(-c2cccs2)cc1 [Compound 245] | 5630 nM |
| Cc1ccccc1-c1ccc(S(=O)(=O)N(CC(=O)NCc2ccc(CN)cc2)CC(C)c2ccccc2)cc1 (stereo not drawn) [Compound 311] | 50 nM |
| Cc1ccccc1-c1ccc(S(=O)(=O)N(CC(=O)NCc2ccc(CN)cc2)C2CC2c2ccccc2)cc1 (stereo not drawn) [Compound 320] | 2570 nM |
| COc1ccccc1CCN(CC(=O)NCC1CCCC(CN)C1)S(=O)(=O)c1ccc(-c2ccccc2C)cc1 (stereo not drawn) [Compound 336] | 980 nM |
| COc1ccccc1CCN(CC(=O)NCC1CCCC(CN)C1)S(=O)(=O)c1ccc(-c2ccccc2Cl)cc1 (stereo not drawn) [Compound 337] | 310 nM |
| COc1ccccc1CCN(CC(=O)NCC1CCCC(CN)C1)S(=O)(=O)c1ccc(-c2ccccc2OC)cc1 (stereo not drawn) [Compound 338] | 440 nM |
| COc1ccccc1CCN(CC(=O)NCC1CCCC(CN)C1)S(=O)(=O)c1ccc(-c2ccc(Cl)cc2Cl)cc1 (stereo not drawn) [Compound 339] | 1100 nM |
| COc1ccccc1CN(CC(=O)NCC1CCCC(CN)C1)S(=O)(=O)c1ccc(-c2ccccc2C)cc1 (stereo not drawn) [Compound 340] | 650 nM |
| COc1ccccc1CN(CC(=O)NCC1CCCC(CN)C1)S(=O)(=O)c1ccc(-c2ccccc2Cl)cc1 (stereo not drawn) [Compound 341] | 570 nM |
| COc1ccccc1CN(CC(=O)NCC1CCCC(CN)C1)S(=O)(=O)c1ccc(-c2ccc(Cl)cc2Cl)cc1 (stereo not drawn) [Compound 343] | 530 nM |
| COc1ccccc1CCN(CC(=O)NCc1cccc(CN)c1)S(=O)(=O)c1ccc(-c2ccccc2C)cc1 [Compound 344] | 700 nM |
| COc1ccccc1CCN(CC(=O)NCCCCCCN)S(=O)(=O)c1ccc(-c2ccccc2C)cc1 [Compound 352] | 110 nM |
| COc1ccccc1CCN(CC(=O)NCCCCCCN)S(=O)(=O)c1ccc(-c2ccccc2Cl)cc1 [Compound 353] | 140 nM |
| COc1ccccc1CCN(CC(=O)NCCCCCCN)S(=O)(=O)c1ccc(-c2ccc(Cl)cc2Cl)cc1 [Compound 355] | 400 nM |
| C[C@@H](CN(CC(=O)N1CCC(C2CCNCC2)CC1)S(=O)(=O)c1ccc(-c2ccccc2Cl)cc1)c1ccccc1 [Compound 367] | 1020 nM |
| Cc1ccccc1-c1ccc(S(=O)(=O)N(CC(=O)NCC2CCC(CN)CC2)C[C@H](C)c2ccccc2)cc1 (stereo partly drawn) [Compound 372] | 190 nM |

| SMILES | EC50 |
| --- | --- |
| C[C@@H](CN(CC(=O)NCCCCCN)S(=O)(=O)c1ccc(-c2ccccc2Cl)cc1)c1ccccc1 [Compound 379] | ≥ 50000 nM |
| C[C@@H](CN(CC(=O)NCCCCCN)S(=O)(=O)c1ccc(-c2cccc(F)c2)cc1)c1ccccc1 [Compound 380] | 1200 nM |
| C[C@@H](CN(CC(=O)NCC1CCCC(CN)C1)S(=O)(=O)c1ccc(-c2ccccc2Cl)cc1)c1ccccc1 (stereo partly drawn) [Compound 385] | 330 nM |
| C[C@@H](CN(CC(=O)NCC1CCCC(CN)C1)S(=O)(=O)c1ccc(-c2cccc(F)c2)cc1)c1ccccc1 (stereo partly drawn) [Compound 386] | 1170 nM |
| C[C@H](CN(CC(=O)NCC1CCCC(CN)C1)S(=O)(=O)c1ccc(-c2ccccc2Cl)cc1)c1ccccc1 (stereo partly drawn) [Compound 388] | 900 nM |
| Cc1ccccc1-c1ccc(S(=O)(=O)N(CC(=O)NCc2cccc(CN)c2)C[C@H](C)c2ccccc2)cc1 [Compound 390] | 230 nM |
| C[C@@H](CN(CC(=O)NCCCCCCN)S(=O)(=O)c1ccc(-c2ccccc2Cl)cc1)c1ccccc1 [Compound 397] | 50 nM |
| C[C@H](CN(CC(=O)NCCCCCCN)S(=O)(=O)c1ccc(-c2cccc(F)c2)cc1)c1ccccc1 [Compound 401] | 1360 nM |
| C[C@@H](CN(CC(=O)NCc1ccc(CN(C)C)cc1)S(=O)(=O)c1ccc(-c2ccccc2Cl)cc1)c1ccccc1 [Compound 471] | 50000 nM |
| CCN(CC)Cc1ccc(CNC(=O)CN(CC(C)c2ccccc2)S(=O)(=O)c2ccc(-c3ccccc3Cl)cc2)cc1 (stereo not drawn) [Compound 472] | > 50000 nM |
| CC(=O)NCc1ccc(CNC(=O)CN(C[C@H](C)c2ccccc2)S(=O)(=O)c2ccc(-c3ccccc3Cl)cc2)cc1 [Compound 473] | > 50000 nM |
| Cc1ccccc1-c1ccc(S(=O)(=O)N(CC(=O)NCc2ccc(CN(C)C)cc2)C[C@@H](C)c2ccccc2)cc1 [Compound 474] | > 50000 nM |
| CCN(CC)Cc1ccc(CNC(=O)CN(C[C@@H](C)c2ccccc2)S(=O)(=O)c2ccc(-c3ccccc3C)cc2)cc1 [Compound 475] | 9460 nM |
| CC(=O)NCc1ccc(CNC(=O)CN(CC(C)c2ccccc2)S(=O)(=O)c2ccc(-c3ccccc3C)cc2)cc1 (stereo not drawn) [Compound 476] | ≥ 50000 nM |
| C[C@H](CN(CC(=O)NCc1ccc(CN)cc1)C(=O)c1ccc(-c2ccccc2Cl)cc1)c1ccccc1 [Compound 477] | 7700 nM |
| CC(CN(CC(=O)NC1CCC(CC2CCC(N)CC2)CC1)S(=O)(=O)c1ccc(-c2ccccc2Cl)cc1)c1ccccc1 (stereo not drawn) [Compound 497] | 4040 nM |
| COc1ccc(CCN(CC(=O)NCCCCCCN)S(=O)(=O)c2ccc(-c3ccccc3Cl)cc2)cc1 [Compound 502] | 300 nM |
| C[C@@H](CN(CC(=O)NCc1ccc(CN)cc1)S(=O)(=O)c1ccc(C(C)(C)C)cc1)c1ccccc1 [Compound 555] | 1930 nM |
| C[C@@H](CN(CC(=O)NCc1ccc(CN)cc1)C(=O)Nc1ccc(-c2ccccc2)cc1)c1ccccc1 [Compound 590] | 2600 nM |

— patent US6583179B2, “Substituted aminoalkylamide derivatives as antagonists of follicle stimulating hormone” (Ortho-McNeil Pharmaceutical, Inc., priority 1999, dated 2003)
